{
  "source": "patent US20240059740A1",
  "about": "“CYCLIC PEPTIDES AND USES THEREOF” (PRE[…] INC., priority 2020, published 2024)",
  "key": {"U251 cells": {"system": "U251 cells", "experiment": "BME cell invasion assay, U251", "assay_type": "cell-based, human", "conditions": "24 h", "description": "To assess whether the ability of SEQ ID NO.1 to inhibit MMP-2 activity and, to a lesser extent, reduce the production of matrix proteinases and downregulate the expression of EMT markers, was of functional consequence in reducing the invasiveness of the GBM cells, the ability of the peptide was tested at the concentrations of 1, 10 and 100 μM (none of which are toxic to cells) to inhibit invasion of the GBM cells through a basement membrane. This assay, described in more detail below, is an in vitro surrogate for measurement of the in vivo invasion by tumour cells of their environment.\nThe cell invasion assay employs a simplified Boyden chamber-like design that consists of two chambers separated by a filter (an 8 μm polycarbonate (PC) membrane) coated with basement membrane or different extracellular matrix components. The cell suspension is placed in the top chamber and incubated in the presence of test media containing specific chemo-attractants in the bottom chamber. Cells migrate from the top chamber to the bottom of the filter by degrading the coating over the filter pores. Detection of cell invasion is quantified using Calcein AM. Cell dissociation/Calcein AM solution is placed in the bottom chamber to dissociate the migrating cells from the filter. Calcein AM is internalized by the cells, and intracellular-esterases cleave the aceto-methylester (AM) moiety. Free Calcein fluoresces brightly and is used to quantitate the number of cells that have invaded or migrated by comparison with a standard curve (In Vitro Technologies Pty Ltd, (https://lifescience.invitro.com.au/brands/r-and-d-systems/).\nThe filter was coated with PathClear® growth factor reduced BME. The selected peptides were applied to the cells in both upper and lower wells to make sure the concentration of peptides were the same and the chemoattractant was serum at a concentration of 2% (for adherent U87 & U251 cells) or growth factor mix required in the medium (for non- adherent, 081024 oncospheres).\nCell invasion was determined using CultureCoat® 96 Well Medium BME Cell Invasion assay. Briefly, the cells were pre-starved 24 h before harvest. Then seeding 25,000 per well of cell in the upper chamber with serum free medium together different concentration of peptide. The bottom chamber also added different concentration of peptides with 2% (V/V) serum for GBM adherent cells or growth factor mix for neurosphere cells as chemoattractant. After 24 h incubation, the invading cells were measured by Calcein AM and calculated based on standard curve.\nThe results are shown in Table 12, the results are expressed as % inhibition."}, "MMP-2": {"system": "MMP-2", "experiment": "Gelatin zymography of conditioned media, MMP-2 production", "assay_type": "cell-based, human", "conditions": "for metalloprotease production, MMP-2: compared to control containing no peptide", "from_the_text": "To assess whether the peptide SEQ ID NO.1 impacted MMP-2, MMP-9 and uPA production Zymography was used.\nZymography is a technique for studying hydrolytic enzymes on the basis of substrate degradation. The in-gel zymography hydrolytic enzymes are separated by their molecular weights and detected by their ability to degrade a substrate. To detect the activity of MMP-2 and MMP-9 in various cell lines, conditioned media were collected in 3 independent experiments and analysed by gelatin zymography to quantify the level of gelatin digestion, which reflects MMP-2 and MMP-9 activity and production. Casein-Plasminogen zymography was conducted to determine the activity level of uPA in the conditioned medium from various cell lines. Active uPA converts plasminogen into plasmin which then digests casein, thus clear bands where digestion of casein have occurred indirectly represent uPA activity.\nThe effect of the peptides on matrix protease production was tested using in-gel zymography. If the substrate included in the gel is gelatin, the enzymes detected are gelatinases: MMP-2 and MMP-9 (the latter is often of low abundance). If the gel contains casein and plasminogen, the enzymes tested are urokinase plasminogen activators (uPA); uPA is a therapeutic target in GBM.\nAn equal amount of protein from each sample was mixed with 5 μL of Laemmli buffer (0.01% Bromophenol Blue (W/V), 5% SDS (W/V), 22% glycerol (V/V), 14% 0.5 M Tris pH 6.8 (V/V)) and loaded onto a 10% polyacrylamide gel co-polymerized with 1 mg/ml of gelatin, and electrophoresed at 120 V for 2 hours on ice. The gel was incubated in […] solution (Triton X-100 2.5% (V/V), 1 M Tris pH 7.5 5% (V/V), 0.5 M CaCl2 1% (W/V) at room temperature overnight on an orbital shaker. The gel was incubated in a second solution for 3 hours at 37° C. The gel was then stained with Coomassie blue solution (Coomassie blue 0.25%, methanol 45%, acetic acid 10%) and destained in methanol 25% (V/V), acetic acid 10% (V/V) destaining solution until clear bands against the dark background appeared around 72 kDa and 95 kDa, representing MMP-2 and MMP-9 activity, respectively. Clear bands around 50 kDa appeared against the dark background representing uPA activity. The gels were scanned, and uPA, MMP-2 and MMP-9 were quantified by densitometry using NIH Image J software.\nSEQ ID NO.1 was compared to a control containing no peptide to evaluate whether the peptide can reduce the production of matrix proteinases. […] This could be confirmed using a MMP-9 quantification kit, and altered production by a transcriptional mechanism can be unveiled using qRT-PCR."}},
  "note": "Residues, ends and D or L forms follow the SMILES beside them.",
  "data": [
    {"compound": "CC(C)C[C@@H]1NC(=O)[C@H](C)NC(=O)[C@@H](NC(=O)[C@@H]2CCCN2C(=O)[C@@H](N)CC(C)C)CSSC(C)(C)CNC(=O)CC[C@@H](C(=O)N[C@@H](CCCNC(=N)N)C(N)=O)NC(=O)[C@H](CC(=O)O)NC(=O)[C@H](CC(N)=O)NC1=O", "note": "[SEQ ID NO: 1, Leu-Pro-c(SSA*-Ala-Leu-Asn-Asp-Glu)-Arg-NH2] (HELM PEPTIDE1{L.P.C.A.L.N.D.E.R.[am]}|CHEM1{[CC(C)(CN[*:2])S[*:1]]}$PEPTIDE1,CHEM1,3:R3-1:R1|PEPTIDE1,CHEM1,8:R3-1:R2$$$V2.0; N-terminus assumed)", "values": [
      {"measurement": "Invasion Inhibition Index (%)", "setting": "U251 cells; 1 μM", "result": 13.2, "unit": "%"},
      {"measurement": "Invasion Inhibition Index (%)", "setting": "U251 cells; 10 μM", "result": 17.8, "unit": "%"},
      {"measurement": "Invasion Inhibition Index (%)", "setting": "U251 cells; 100 μM", "result": 26.7, "unit": "%"},
      {"measurement": "metalloprotease production, MMP-2", "setting": "MMP-2; 081024 cells", "result": 106.4},
      {"measurement": "metalloprotease production, MMP-2", "setting": "MMP-2; U87 cells", "result": 102.1},
      {"measurement": "metalloprotease production, MMP-2", "setting": "MMP-2; U251 cells", "result": 110.2},
      {"measurement": "production of MMP-2 (overall, in words)", "setting": "MMP-2; overall, all cell lines", "result": "did not decrease"}
    ]}
  ]
}
